Results on 38 compounds are retold here after BindingDB's records for patent WO2025049746 (Eikon Therapeutics, 2025).

For test [1], the target named is Bifunctional 3'-5' exonuclease/ATP-dependent helicase WRN (Homo sapiens, UniProt Q14191). In words: ADP-Glo Kinase Assay. Here is the method:
ATPase activity was measured using the ADP-Glo Kinase Assay following the manufacturers recommended protocol.

For test [2], the target named is T1, Bifunctional 3'-5' exonuclease/ATP-dependent helicase WRN [480-1251] (UniProt Q14191).
T1 construct: 480-1251
The experiment in a line: Biochemical Activity Assays. Here is the method: The pure fractions were pooled and desalted/buffer exchanged into storage buffer using a HiTrap desalting column. […] First, WRN alone was pre-incubated with DMSO or compound of interest for 15 minutes. To initiate the reaction, ATP, dsDNA substrate, and ssDNA competitor (ssDNA_comp: […]) were added and incubated at room temperature for 20 minutes at which point DNA unwinding activity was monitored by measuring Cy3 fluorescence. After obtaining the reading, the ATPase activity was measured using the ADP-Glo Kinase Assay following the manufacturers recommended protocol. […] Compounds were assayed in a 10-point dose response in duplicate at a 1% DMSO final assay concentration.

Each structure is given as a SMILES string.

Bifunctional 3'-5' exonuclease/ATP-dependent helicase WRN, sequence (Q14191 whole entry): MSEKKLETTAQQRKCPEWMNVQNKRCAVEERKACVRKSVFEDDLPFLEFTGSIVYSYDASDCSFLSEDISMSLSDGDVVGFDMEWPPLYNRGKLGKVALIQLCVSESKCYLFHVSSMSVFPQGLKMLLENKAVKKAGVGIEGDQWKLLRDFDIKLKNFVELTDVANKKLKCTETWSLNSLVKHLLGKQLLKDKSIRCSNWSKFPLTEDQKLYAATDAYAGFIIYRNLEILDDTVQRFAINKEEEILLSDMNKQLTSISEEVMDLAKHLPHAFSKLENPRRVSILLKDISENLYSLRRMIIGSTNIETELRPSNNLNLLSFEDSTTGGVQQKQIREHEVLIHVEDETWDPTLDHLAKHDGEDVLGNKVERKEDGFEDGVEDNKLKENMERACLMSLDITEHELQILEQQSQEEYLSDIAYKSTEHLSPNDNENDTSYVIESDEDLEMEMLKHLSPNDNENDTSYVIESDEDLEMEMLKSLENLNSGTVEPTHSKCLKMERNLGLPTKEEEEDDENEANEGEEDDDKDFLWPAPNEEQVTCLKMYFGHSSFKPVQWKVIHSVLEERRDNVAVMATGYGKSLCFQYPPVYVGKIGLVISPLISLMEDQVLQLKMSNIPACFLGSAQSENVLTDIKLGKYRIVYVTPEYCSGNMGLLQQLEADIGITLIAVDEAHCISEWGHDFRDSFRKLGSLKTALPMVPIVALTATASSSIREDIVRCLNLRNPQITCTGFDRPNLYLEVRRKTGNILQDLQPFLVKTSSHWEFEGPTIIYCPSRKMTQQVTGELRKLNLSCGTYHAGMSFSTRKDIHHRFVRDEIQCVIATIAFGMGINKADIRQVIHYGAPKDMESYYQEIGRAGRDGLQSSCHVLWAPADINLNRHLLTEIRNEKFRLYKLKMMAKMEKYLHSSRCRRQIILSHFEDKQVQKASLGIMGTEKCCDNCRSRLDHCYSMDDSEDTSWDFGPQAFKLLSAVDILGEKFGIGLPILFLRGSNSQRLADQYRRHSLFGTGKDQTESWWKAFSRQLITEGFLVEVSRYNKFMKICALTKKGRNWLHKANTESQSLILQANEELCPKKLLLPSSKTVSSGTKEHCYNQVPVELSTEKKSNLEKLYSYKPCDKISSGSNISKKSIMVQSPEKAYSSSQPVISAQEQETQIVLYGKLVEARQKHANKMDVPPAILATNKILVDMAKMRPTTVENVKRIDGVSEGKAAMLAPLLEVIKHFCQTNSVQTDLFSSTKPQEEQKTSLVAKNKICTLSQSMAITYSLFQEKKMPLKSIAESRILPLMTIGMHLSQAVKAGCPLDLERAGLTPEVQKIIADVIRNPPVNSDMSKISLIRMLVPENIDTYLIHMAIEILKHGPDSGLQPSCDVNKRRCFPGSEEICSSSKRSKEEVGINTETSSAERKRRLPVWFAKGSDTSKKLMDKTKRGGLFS
T1 sequence (Q14191 480-1251): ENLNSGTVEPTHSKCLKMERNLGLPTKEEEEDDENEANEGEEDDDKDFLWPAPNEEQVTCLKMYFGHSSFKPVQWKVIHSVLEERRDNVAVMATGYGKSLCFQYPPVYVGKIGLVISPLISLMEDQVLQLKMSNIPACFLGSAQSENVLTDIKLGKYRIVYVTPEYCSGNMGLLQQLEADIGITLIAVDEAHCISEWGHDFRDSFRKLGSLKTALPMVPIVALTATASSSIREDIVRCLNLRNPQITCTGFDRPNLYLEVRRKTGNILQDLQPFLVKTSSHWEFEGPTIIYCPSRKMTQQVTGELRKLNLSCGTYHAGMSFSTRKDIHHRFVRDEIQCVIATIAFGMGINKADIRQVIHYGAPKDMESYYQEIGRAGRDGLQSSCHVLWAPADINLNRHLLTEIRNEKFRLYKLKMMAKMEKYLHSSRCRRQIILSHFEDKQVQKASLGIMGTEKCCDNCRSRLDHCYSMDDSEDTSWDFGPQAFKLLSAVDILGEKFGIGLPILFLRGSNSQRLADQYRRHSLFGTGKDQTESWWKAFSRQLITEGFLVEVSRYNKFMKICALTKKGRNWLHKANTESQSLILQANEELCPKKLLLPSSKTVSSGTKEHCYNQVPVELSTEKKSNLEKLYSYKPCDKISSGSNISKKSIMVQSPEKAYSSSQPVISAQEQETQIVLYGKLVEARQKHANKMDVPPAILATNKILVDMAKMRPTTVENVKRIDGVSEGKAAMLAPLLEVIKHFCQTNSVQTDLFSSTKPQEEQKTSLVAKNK

As to `CCc1c(N2CCN(C(=O)c3ncnc(C)c3O)CC2)c(=O)n2nc(-c3ccc4c(c3)oc(=O)n4C)nc2n1CC(=O)Nc1ccc(C(F)(F)F)cc1Cl` [WO2025049746, Example 233], the results for the IC50 in test [1] and in test [2] were 21 nM and 24 nM, respectively.
`CCc1c(N2CCN(C(=O)c3ncnc(C)c3O)CC2)c(=O)n2nc(-c3cc(F)c4ncccc4c3F)nc2n1CC(=O)Nc1ccc(C(F)(F)F)cc1Cl` [WO2025049746, Example 320]: the concentration for half-maximal inhibition (IC50) in test [1] is 19 nM; in test [2], 22 nM.
Turning to `CCc1c(-c2cc3n(n2)CC(=O)N(C)C3)c(=O)n2nc(C3=CCOCC3)nc2n1CC(=O)Nc1ccc(C(F)(F)F)cc1Cl` [WO2025049746, Example 338], the IC50 in test [1] and in test [2] was 29700 nM throughout.
For `CCc1c(N2CCN(C(=O)c3ncnc(C)c3O)CC2)c(=O)n2nc(-c3cnn4c3CCC4)nc2n1CC(=O)Nc1ccc(C(F)(F)F)cc1Cl` [WO2025049746, Example 166], the results for the IC50 in test [1] and in test [2] were 16 nM and 14 nM, respectively.
As to `CCc1c(N2CCN(C(=O)c3nccc4nn[nH]c34)CC2)c(=O)n2nc(C3=CCOCC3)nc2n1CC(=O)Nc1ccc(C(F)(F)F)cc1Cl` [WO2025049746, Example 48], the IC50 in test [1] is 27 nM; in test [2], 19.8 nM.
Turning to `CCc1c(N2CCN(C(=O)c3nc4n(c(=O)c3O)CCOC4)CC2)c(=O)n2nc(-c3ccc4c(c3)CCOC4)nc2n1CC(=O)Nc1ccc(C(F)(F)F)cc1Cl` [WO2025049746, Example 90], the IC50 came to 34.6 nM in test [1] and 29.2 nM in test [2].
For `CCc1c(N2CCN(C(=O)c3ncnc(C)c3O)CC2)c(=O)n2nc(-c3ccc4c(c3)OCO4)nc2n1CC(=O)Nc1ccc(C(F)(F)F)cc1Cl` [WO2025049746, Example 10], in that order: 28.5 nM and 22.1 nM.
For the compound `CCc1c(N2CCN(C(=O)c3ncnc(C)c3O)CC2)c(=O)n2nc(-c3ccc4ccnn4c3)nc2n1CC(=O)Nc1ccc(C(F)(F)F)cc1Cl` [WO2025049746, Example 253], the IC50 in test [1] and in test [2] was 24 nM in each case.
Regarding `CCc1c(N2CCN(C(=O)c3ncnc(C)c3O)CC2)c(=O)n2nc(-c3cc4c(cc3F)O[C@@H](C)C4)nc2n1CC(=O)Nc1ccc(C(F)(F)F)cc1Cl` [WO2025049746, Example 249], the IC50 in test [1] came out at 25 nM; in test [2], 26 nM.
For `CCc1c(N2CCN(C(=O)c3ncnc(C)c3O)CC2)c(=O)n2nc(-c3cc(C)c4c(c3)COC4)nc2n1CC(=O)Nc1ccc(C(F)(F)F)cc1Cl` [WO2025049746, Example 206], in that order: 33 nM and 28 nM.
Turning to `CCc1c(N2CCN(C(=O)c3ncnc(C)c3O)CC2)c(=O)n2nc(C3=CCOCC3)nc2n1CC(=O)NC12CC(C3CCC3)(C1)C2` [WO2025049746, Example 352], the 50% inhibitory concentration (IC50) in test [1] came to 174 nM; in test [2], 122 nM.
For the compound `CCc1c(N2CCN(C(=O)c3cn(C)nc3O)CC2)c(=O)n2nc(N(C)C)nc2n1CC(=O)Nc1ccc(C(F)(F)F)c2c1CC2` [WO2025049746, Example 107], the IC50 in test [1] stood at 160 nM; in test [2] it was 129 nM.
For `CCc1c(N2CCN(C(=O)c3ncnc(C)c3O)CC2)c(=O)n2nc(-c3cc4c(cc3F)COCC4)nc2n1CC(=O)Nc1ccc(C(F)(F)F)cc1Cl` [WO2025049746, Example 260], the IC50 in test [1] came to 22 nM; in test [2] it was 21 nM.
In the case of `CCc1c(N2CCN(C(=O)C3CCCC3O)CC2)c(=O)n2nc(C3=CCOCC3)nc2n1CC(=O)Nc1ccc(C(F)(F)F)cc1Cl` (stereo not drawn) [WO2025049746, Example 58], the IC50 in test [1] is 1260 nM; in test [2], 187 nM.
With `CCc1c(N2CCC3C2CCCN3C(=O)c2ncnc(C)c2O)c(=O)n2nc(C3=CCOCC3)nc2n1CC(=O)Nc1ccc(C(F)(F)F)cc1Cl` (stereo not drawn) [WO2025049746, Example 347], the values for the IC50 in test [1] and in test [2] were 132 nM and 84 nM, respectively.
For `CCc1c(N2CCN(C(=O)c3ncnc(C)c3O)CC2)c(=O)n2nc(-c3ccn4nc(OC(F)F)cc4c3F)nc2n1CC(=O)Nc1ccc(C(F)(F)F)cc1Cl` [WO2025049746, Example 334], in that order: 30 nM and 32 nM.
For `CCc1c(N2CCN(C(=O)c3ncnc(C)c3O)CC2)c(=O)n2nc(-c3ccc4c(c3)COC4)nc2n1CC(=O)Nc1ccc(C=C(F)F)cc1Cl` [WO2025049746, Example 421], the values for the IC50 in test [1] and in test [2] were 30 nM and 25 nM, respectively.
For `CCc1c(N2CCN(C(=O)c3ncnc(C)c3O)CC2)c(=O)n2nc(N(C)C)nc2n1CC(=O)Nc1ccc(SC(F)(F)F)cc1Cl` [WO2025049746, Example 396], in that order: 42 nM and 36 nM.
For `CCc1c(N2CCN(C(=O)c3ncnc(C)c3O)CC2)c(=O)n2nc(-c3ccc4nc(C)oc4c3)nc2n1CC(=O)Nc1ccc(C(F)(F)F)cc1Cl` [WO2025049746, Example 237], in that order: 82 nM and 84 nM.
For `CCc1c(N2CCN(C(=O)c3ncnc(C)c3O)CC2)c(=O)n2nc(-c3ccc4c(c3)CN(C)CC4)nc2n1CC(=O)Nc1ccc(C(F)(F)F)cc1Cl` [WO2025049746, Example 308], in that order: 47 nM and 49 nM.
With `CCc1c(N2CCN(C(=O)c3ncnc(C)c3O)CC2)c(=O)n2nc(-c3ccc4c(c3)CC[C@H]4OC(F)F)nc2n1CC(=O)Nc1ccc(C(F)(F)F)cc1Cl` [WO2025049746, Example 226], the IC50 in test [1] came to 74 nM; in test [2], 98 nM.
On to `CCc1c(N2CCN(C(=O)c3ncnc(C)c3O)CC2)c(=O)n2nc(-c3cccc4c3OCO4)nc2n1CC(=O)Nc1ccc(SC(F)(F)F)cc1Cl` [WO2025049746, Example 400], for which the IC50 in test [1] amounted to 130 nM; in test [2] it was 103 nM.
`CCc1c(N2CCN(C(=O)c3ncnc(C)c3O)CC2)c(=O)n2nc(-c3ccc4c(c3)CC(=O)N4)nc2n1CC(=O)Nc1ccc(C(F)(F)F)cc1Cl` [WO2025049746, Example 325]: the results for the IC50 in test [1] and in test [2] were 25 nM and 34 nM, respectively.
The matching figures for `CCc1c(N2CCN(C(=O)c3ncnc(C)c3O)CC2)c(=O)n2nc(-c3ccc4c(c3)[C@H](C)OC4)nc2n1CC(=O)Nc1ccc(C(F)(F)F)cc1Cl` [WO2025049746, Example 189]: 34 nM and 29 nM.
Turning to `CCc1c(N2CCN(C(=O)c3cn(C)[nH]c3=O)CC2)c(=O)n2nc(C3=CCOCC3)nc2n1CC(=O)Nc1ccc(C(F)(F)F)cc1Cl` [WO2025049746, Example 33], the results for the IC50 in test [1] and in test [2] were 31 nM and 25.8 nM, respectively.
In the case of `CCc1c(N2CCN(C(=O)c3nc4c(cc3O)OCC4)CC2)c(=O)n2nc(-c3ccc4c(c3)COC4)nc2n1CC(=O)Nc1ccc(C(F)(F)F)cc1Cl` [WO2025049746, Example 435], the IC50 in test [1] turned out to be 61 nM; in test [2], 50 nM.
For `CCc1c(N2CCN(C(=O)c3ncnc(C)c3O)CC2)c(=O)n2nc(-c3ccc4c(c3)COC4)nc2n1CC(=O)Nc1ccc(C(F)(F)F)cc1OC1CC1` [WO2025049746, Example 416], in that order: 387 nM and 159 nM.
With `CCc1c(N2CC[C@H](C)N(C(=O)c3ncnc(C)c3O)CC2)c(=O)n2nc(C3=CCOCC3)nc2n1CC(=O)Nc1ccc(C(F)(F)F)cc1Cl` [WO2025049746, Example 342], the IC50 amounted to 1800 nM in test [1] and 420 nM in test [2].
For the compound `CCc1c(N2CCN(C(=O)c3ncnc(C)c3O)CC2)c(=O)n2nc(-c3ccc4nn(C)cc4c3)nc2n1CC(=O)Nc1ccc(C(F)(F)F)cc1Cl` [WO2025049746, Example 235], the IC50 in test [1] stood at 23 nM; in test [2] it was 26 nM.
The matching figures for `CCc1c(N2CCN(C(=O)c3ncnc(C)c3O)CC2)c(=O)n2nc(-c3ccc4c(c3)CS(=O)(=O)N4C)nc2n1CC(=O)Nc1ccc(C(F)(F)F)cc1Cl` [WO2025049746, Example 279]: 26 nM and 29 nM.
In test [1], `CCc1c(N2CCN(C(=O)c3ncnc(C)c3O)CC2)c(=O)n2nc(-c3cncc4c3CCOC4)nc2n1CC(=O)Nc1ccc(C(F)(F)F)cc1Cl` [WO2025049746, Example 163] returned a half-maximal inhibitory concentration (IC50) of 29700 nM.
In the case of `CCc1c(N2CCN(C(=O)c3ncnc(C)c3O)CC2)c(=O)n2nc(-c3cccc4c3CCOC4)nc2n1CC(=O)Nc1ccc(C(F)(F)F)cc1Cl` [WO2025049746, Example 4], in test [2], half-maximal inhibition (IC50) required 66.2 nM.
`CCc1c(N2CCN(C(=O)c3ncnc(C)c3O)CC2)c(=O)n2nc(C3=CCOCC3)nc2n1CC(=O)NC12CC(C34CC(C(C)(F)F)(C3)C4)(C1)C2` [WO2025049746, Example 354] gave an IC50 in test [1] of 29700 nM.
Still for that read-out and setting: as for `CCc1c(N2CCN(C(=O)c3ncnc(C)c3O)CC2)c(=O)n2nc(C3=CCOCC3)nc2n1CC(=O)NC12CCC(C(F)(F)F)(CC1)OC2` [WO2025049746, Example 358], the figure is 29700 nM.
Same read-out and setting: as for `CCc1c(N2CCN(C(=O)c3ncnc(C)c3O)CC2)c(=O)n2nc(-c3ccc4c(c3C)COC4)nc2n1CC(=O)Nc1ccc(C(F)(F)F)cc1Cl` [WO2025049746, Example 196], the figure is 9990 nM; as for `CCc1c(N2CC3CCN(C(=O)c4ncnc(C)c4O)CC32)c(=O)n2nc(C3=CCOCC3)nc2n1CC(=O)Nc1ccc(C(F)(F)F)cc1Cl` (stereo not drawn) [WO2025049746, Example 346], 29700 nM; as for `CCc1c(N2CCN(C(=O)c3ncnc(C)c3O)CC2)c(=O)n2nc(-c3cc(OC)c(OC)c(OC)c3)nc2n1CC(=O)Nc1ccc(C(F)(F)F)cc1Cl` [WO2025049746, Example 268], 29700 nM.
On the same count and under the same terms, as for `CCc1c(N2CCN(C(=O)C3CCOCC3)CC2)c(=O)n2nc(-c3ccnc(O)n3)nc2n1CC(=O)Nc1ccc(C(F)(F)F)cc1Cl` [WO2025049746, Example 431], the figure is 29700 nM.
